The values below come from PMC11435220, “Anticancer Activity of Imidazolyl Gold(I/III) Compounds in Non-Small Cell Lung Cancer Cell Lines” (Pharmaceuticals, 2024).

The subject of one data set is H522. Kind of data set: MTT viability assay, H522. The class given is cell-based, human. The following applies: mean ± span, 48 h treatment, cell line without KRAS mutation. Here is the method:
(§1) NSCLC cell lines were obtained from the Hamon Center for Therapeutic Oncology Research (UT Southwestern Medical Center). IMR-90 human lung fibroblasts were from ATCC (CC-186). All cell lines were maintained and treated in RPMI medium (Cytiva (Shanghai, China), #SH30027), supplemented with 10% heat-inactivated FBS (Millipore Sigma (Darmstadt, Germany), F0394).
(§2) 5000–10,000 cells/0.1 mL/well were seeded in 96-well plates to achieve 70% confluence after 24 h. All drug stock solutions were prepared fresh in DMSO at a concentration of 10 mM. The day after cell plating, we added 0.1 mL of medium containing the appropriate drug dilutions. After 48 h of treatment, 10 μL of MTT solution (5 mg/mL) was added to each well. After 4 h incubation, the medium was aspirated, and the formazan salts dissolved in 200 μL DMSO/well for 10 min at 37 °C. The absorbance was read at 570 nm (OD 570 nm). Data are represented as mean ± SD of two independent experiments.
(§3) Statistical and data analysis was performed using GraphPad Prism (v10). IC50 values were calculated using a three-parameter non-linear regression model with log(inhibitor) vs. response. For the TxrR activity statistics, the groups were compared using a two-way ANOVA followed by Dunnett’s multiple comparisons with alpha = 0.05. The correlation between IC50 values and TxrR activity was achieved using Pearson correlation with alpha = 0.05.
In general terms: Tetrazolium assays rely on reduction of a dye to a coloured formazan, in cell work by metabolically active cells.

Another data set has as its system H661. The experiment in a line: MTT viability assay, H661. It counts as cell-based, human. The conditions noted are these: mean ± span, 48 h treatment, cell line without KRAS mutation. Here is the method:
as §1, §2, §3

Another data set has as its system H1395. Kind of data set: MTT viability assay, H1395. The conditions noted are these: mean ± span, 48 h treatment, cell line without KRAS mutation. It counts as cell-based, human. The protocol: as §1, §2, §3
The subject of another data set is H1993. Kind of data set: MTT viability assay, H1993. It counts as cell-based, human. The following applies: mean ± span, 48 h treatment, cell line without KRAS mutation. Here is the method:
as §1, §2, §3

The subject of another data set is A549. The experiment in a line: MTT viability assay, A549. The class given is cell-based, human. The conditions noted are these: mean ± span, 48 h treatment, cell line with KRAS mutation. Here is the method:
as §1, §2, §3

The test system of a further data set is H460. Kind of data set: MTT viability assay, H460. It counts as cell-based, human. The conditions noted are these: mean ± span, 48 h treatment, cell line with KRAS mutation. The protocol: as §1, §2, §3
The subject of a further data set is H1792. The experiment in a line: MTT viability assay, H1792. The class given is cell-based, human. The conditions noted are these: mean ± span, 48 h treatment, cell line with KRAS mutation. The protocol: as §1, §2, §3
For another data set, the system named is HCC-44. The experiment in a line: MTT viability assay, HCC-44. The following applies: mean ± span, 48 h treatment, cell line with KRAS mutation. It counts as cell-based, human. Here is the method: as §1, §2, §3
Another data set concerns H1355. The experiment in a line: MTT viability assay, H1355. The following applies: mean ± span, 48 h treatment, cell line with KRAS mutation. The class given is cell-based, human. Here is the method: as §1, §2, §3
Data set [1] deals with human NSCLC cell lines without KRAS mutations. The experiment in a line: MTT assay, average across NSCLC cell lines without KRAS mutations. It counts as cell-based. The following applies: average across cell lines without KRAS mutations (H522, H661, H1395, H1993), 48 h, read-out: IC50 * averaged values. Here is the method: as §1, §2, §3
Data set [2] relates to human NSCLC cell lines with KRAS mutations. Kind of data set: MTT assay, average across NSCLC cell lines with KRAS mutations. It counts as cell-based. The following applies: 48 h, read-out: IC50 * averaged values. The protocol: as §1, §2, §3
The test system of data set [3] is TrxR in H522 cell lysates. The experiment in a line: Thioredoxin reductase activity in lysates of treated H522 cells. The class given is cell-based, human. The conditions noted are these: for TrxR activity reduction / inhibition: H522, 24 h treatment, stated for both cell lines; for Mean Diff. TrxR activity vs. veh: H522 lysate, 24 h treatment at 5 μM. Here is the method:
(§4) The enzymatic activity of TrxR in the A549 and H522 cell lysates was measured using the TrxR assay Kit (Abcam ab83463) following the manufacturer’s instructions. This kit is based on the TxrR-mediated reduction of the colorless DTNB into TNB2—(yellow). Briefly, cells were plated to reach 70% confluence on a 100-mm dish in one day. They were treated with 5 μM of the gold compounds or the equivalent quantity of DMSO for 24 h. Then, cells were washed in PBS 1X, detached, and lysed in 100 μL of cold TrxR assay buffer supplemented with the Proteinase Inhibitor Cocktail. 20 μg and 40 μg of total proteins were used for the A549 and the H522, respectively. The DTNB substrate was added to samples with or without TrxR inhibitor (provided with the kit) in 96-well plates. The OD412 was measured soon after the substrate addition (A1) and then after 25, 60, 90, and 110 min (An) at 25 °C using a FLUOstar Omega Microplate Reader (BGM Labtech, Chicago, IL, USA). Data analysis was performed following the manufacturer’s instructions. The OD of TNB2, generated by TrxR in every condition, is:ΔA412 nm = (AnAB − AnINH) − (AB − A1INH) where AB is the assay buffer, and INH is the inhibitor. The TrxR activity is:(2) ΔB/Tn−T1×mg of protein lysate×sample dilution factor=(nmol/min)/mg=mU/mg where ΔB is the TNB amount calculated applying ΔA412 nm to TNB standard curve (in nmol), T1 is the time of the first reading (A1AB, and A1INH) (in min), Tn is the time of the second reading (AnAB and AnINH) (in min). The residual TxrR activity (%) was calculated by normalizing the TxrR activity for each compound with the matching vehicle values at every n time point.
as §3

Data set [4] deals with TrxR in A549 cell lysates. The experiment in a line: Thioredoxin reductase activity in lysates of treated A549 cells. The class given is cell-based, human. The following applies: for TrxR activity reduction / inhibition: A549, 24 h treatment, stated for both cell lines; for Mean Diff. TrxR activity vs. veh: A549 lysate, 24 h treatment at 5 μM. The protocol: as §4, §3
Data set [5] is described as follows: Solution stability by UV-visible spectra over time. The class given is physicochemical. The following applies: for stability in solution: UV-visible spectra over time, DMSO, methanol, PBS buffered solutions. Here is the method:
Stability studies were led by acquiring UV−visible spectra of 100 µM DMSO or methanol solutions of compounds 1∓8 over time (Figures S19–S29 in Supplementary Materials). […] The stability of NHC-AuX3 complexes (with X = Cl, compounds 1 and 2, with X = Br, compounds 5 and 6) was affected by the nature of both the substituents on the imidazolyl ligand and of the halide, showing a small decrease of the UV bands maxima in an hour. By analyzing the spectral data of compounds 1 and 2, a percent concentration reduction of about 4–5% was estimated within an hour, grading them eligible for biological tests. The partial instability may be attributed to the formation of cationic bis-carbeneAuCl2 species (Equation (1)), with the [bis-carbeneAuX2]^+ and the respective AuX2^−; these ions were actually detected as positive and negative ions in the ESI-MS spectra (see Figures S12 and S13). […] Additionally, the (+)ESI MS spectrum of the acetonitrile solution of compound 6 is particularly rich in positive ions (Figure S16). As concerns the mono-/bis-carbene formation, it is likely initiated by the large trans effect of the carbene ligands, which induces the chemical lability on the trans halide, triggers […], the formation of bis-carbeneAu(III) species, and AuX2^− or AuX4^− anions:2[NHC-AuX3] ⇔ [[(NHC)2AuX2] [AuX2^−] + 2X(1) […]
The stability of the samples 1-8 in DMSO solution was assayed by UV-visible spectroscopy. Spectra were acquired using the Shimadzu UV-2700i spectrophotometer, equipped with the Shimadzu CPS-100 Peltier, at 293 K. Unless diversely specified, 100 µM DMSO solutions of the 1-8 compounds were prepared and spectra were acquired each 10 minutes for a total of 60 minutes. The spectra obtained are reported as following.
Figure S19. UV-Visible Spectra acquired for complex 1.
Figure S20. UV-Visible Spectra acquired for complex 2. […]

Broadly, the IC50 is the point on the concentration scale where inhibition reaches its midpoint.

For the molecule `C[n+]1ccn(Cc2ccccc2)[c]1[Au-]([Br])([Br])[Br]` [Compound 6], the IC50 in the data set with H522 amounted to 55 ± 1.9 µM; with H661, 26 ± 1.5 µM; in the data set with H1395, 62 ± 2.4 µM; with H1993, 5.6 ± 0.76 µM; in the data set on A549 it was 13 ± 1.03 µM; in the data set on H460, 37 ± 1.8 µM. Also, the IC50 in the data set with H1792 worked out at 15 ± 1.1 µM; in the data set on HCC-44, 19 ± 1.4 µM; in the data set on H1355 it was 59 ± 1.7 µM; in data set [1] it was 37 µM; in data set [2] it was 29 µM. In addition, the “TrxR activity reduction / inhibition” value in data set [3] and in data set [4] was 30–40% throughout. Also, the “Mean Diff. TrxR activity vs. veh” value in data set [3] (reading at 25 min) is listed as −31.68%; in [3] (reading at 60 min), −37.22%; in data set [3] (reading at 90 min) it was −39.82%; in [3] (reading at 110 min) it was −46.06%; in data set [4] (reading at 25 min), −17.37%; in [4] (reading at 60 min) it was −2.183%. Also, the “Mean Diff. TrxR activity vs. veh” value is on record as −31.09% in data set [4] (reading at 90 min) and −38.86% in data set [4] (reading at 110 min). The “stability in solution” value in [5] is listed as “least stable in solution”.

`Cn1cc[n+](C)[c]1[Au-]([Cl])([Cl])[Cl]` [Compound 1]: the IC50 is 75 ± 0.89 µM with H522; 47 ± 1.1 µM in the data set with H661; 47 ± 0.4 µM in the data set with H1395; 37 ± 1.3 µM in the data set on H1993; above 100 µM in the data set on A549; 52 ± 1.2 µM in the data set with H460. Besides, the IC50 is 60 ± 1.4 µM in the data set with H1792; 45 ± 0.25 µM with HCC-44; 41 ± 0.33 µM in the data set with H1355; 52 µM in data set [1]; 62 µM in [2]. Moreover, the “TrxR activity reduction / inhibition” value in [3] and in data set [4] was 20–30% each time. Moreover, the “Mean Diff. TrxR activity vs. veh” value in [3] (reading at 25 min) is 15.84%; in data set [3] (reading at 60 min), −8.894%; in [3] (reading at 90 min) it was −20.1%; in data set [3] (reading at 110 min), −23.89%; in data set [4] (reading at 25 min), −16.73%; in data set [4] (reading at 60 min), −13.1%. Besides, the “Mean Diff. TrxR activity vs. veh” value is listed as −26.55% in data set [4] (reading at 90 min) and −32.38% in data set [4] (reading at 110 min). In data set [5] (100 µM solution, within an hour), the “percent concentration reduction estimated from UV spectra” value is on record as 4–5%.

`Cn1cc[n+](C)[c]1[Au-]([Br])([Br])[Br]` [Compound 5]: the IC50 was 52 ± 0.37 µM in the data set on H522; 42 ± 1.7 µM in the data set on H661; 49 ± 0.11 µM in the data set with H1395; 70 ± 1.6 µM in the data set with H1993; 49 ± 0.33 µM with A549; above 100 µM in the data set with H460. Besides, the IC50 in the data set on H1792 was above 100 µM; with HCC-44, 32 ± 1.6 µM; in the data set on H1355, 12 ± 0.72 µM; in data set [1], 53 µM; in [2] it was 59 µM. Also, the “TrxR activity reduction / inhibition” value in data set [3] and in [4] was 30–40% throughout. For the same molecule, the “Mean Diff. TrxR activity vs. veh” value in data set [3] (reading at 25 min) is recorded as −35.55%; in data set [3] (reading at 60 min) it was −39.68%; in [3] (reading at 90 min) it was −41.1%; in data set [3] (reading at 110 min) it was −45.26%; in data set [4] (reading at 25 min) it was −11.58%; in data set [4] (reading at 60 min), −29.11%. Also, the “Mean Diff. TrxR activity vs. veh” value in [4] (reading at 90 min) is −31.74%; in [4] (reading at 110 min) it was −33.68%. The “stability in solution” value in data set [5] is listed as “least stable in solution”.
